This note sets out measurements from ChEMBL document CHEMBL3045180, “Synthesis of novel 4,6-diaryl-2-aminopyrimidines as potential antiplasmodial agents” (Med Chem Res, 2013).

In one data set the test system is Plasmodium falciparum. Put plainly: Antiplasmodial activity against chloroquine-sensitive Plasmodium falciparum MRC 20 infected in human red blood cells measured up to 24 hr. Format: functional, organism-based. Conditions: MRC 20, 24 h.
Data set [1] is described as follows: Haemolytic activity against Homo sapiens (human) RBC at >25 ug/ml up to 24 hr. The class given is ADME, cell-based. The following applies: erythrocyte.
The nature of data set [2]: Haemolytic activity against Homo sapiens (human) RBC at >12.5 ug/ml up to 24 hr. Format: ADME, cell-based. The following applies: erythrocyte.
The nature of data set [3]: Haemolytic activity against Homo sapiens (human) RBC at >50 ug/ml up to 24 hr. The following applies: erythrocyte. Format: ADME, cell-based.

Structures are written as SMILES. In brackets after ≈: the same amount, converted by molar mass. Bounds are passed on as bounds.

In the case of `Nc1nc(-c2ccc(OCc3ccccc3)cc2O)cc(-c2ccccc2Cl)n1`, the concentration for half-maximal inhibition (IC50) with Plasmodium falciparum worked out at 18.9 µg/mL (≈ 46.7 µM). Moreover, the Activity entry in data set [1] is reported as “Toxic”.
For `Cc1ccc(-c2cc(-c3ccc(OCc4ccccc4)cc3O)nc(N)n2)cc1` the same measures were 14.9 µg/mL (≈ 38.8 µM) and “Toxic”.
For `COc1ccc(-c2cc(-c3ccc(Cl)cc3)nc(N)n2)c(O)c1` the same measures were 21.3 µg/mL (≈ 65.1 µM) and “Toxic”.
On the same counts, the results for `COc1ccc(-c2cc(-c3ccc(C)cc3)nc(N)n2)c(O)c1` are 8.71 µg/mL (≈ 28.3 µM) and “Toxic”.
The compound `COc1ccc(-c2cc(-c3ccc(OC)cc3O)nc(N)n2)cc1` returned a half-inhibitory concentration (IC50) with Plasmodium falciparum of 1.78 µg/mL (≈ 5.5 µM). Moreover, in data set [2], the Activity result is reported as “Toxic”.
With `Cc1cccc(-c2cc(-c3ccc(OCc4ccccc4)cc3O)nc(N)n2)c1`, the IC50 in the data set on Plasmodium falciparum was found to be 35.6 µg/mL (≈ 92.7 µM). Further, the Activity result in data set [1] is listed as “Toxic”.
Take `COc1ccc(-c2cc(-c3ccc(F)cc3)nc(N)n2)c(O)c1`: the Activity result in data set [3] is reported as “Toxic”. The compound further returned an IC50 in the data set with Plasmodium falciparum of 15.2 µg/mL (≈ 49 µM).
`COc1ccc(O)c(-c2cc(-c3cccc(Cl)c3)nc(N)n2)c1`: half-maximal inhibition with Plasmodium falciparum (IC50) required 9.53 µg/mL (≈ 29.1 µM). In addition, the Activity entry in data set [1] was “Toxic”.
Regarding `COc1ccc(O)c(-c2cc(-c3ccccc3Cl)nc(N)n2)c1`, the Activity entry in data set [3] was “Toxic”. This compound also came in with an IC50 in the data set with Plasmodium falciparum of 29.3 µg/mL (≈ 89.5 µM).
On the same counts, the results for `COc1cccc(-c2cc(-c3cc(OC)ccc3O)nc(N)n2)c1` are “Toxic” and more than 25 µg/mL.
Turning to `COc1ccc(O)c(-c2cc(-c3ccc(F)cc3)nc(N)n2)c1`, the Activity result in data set [3] was “Toxic”. This compound also registered an IC50 in the data set with Plasmodium falciparum of 25.5 µg/mL (≈ 82 µM).
The compound `COc1ccc(-c2cc(-c3ccc(OCc4ccccc4)cc3O)nc(N)n2)cc1OC` had an IC50 with Plasmodium falciparum of 1.61 µg/mL (≈ 3.75 µM). The Activity result in data set [2] is given as “Toxic”.
In turn, `COc1ccc(-c2cc(-c3ccc(OCc4ccccc4)cc3O)nc(N)n2)cc1` registered an IC50 with Plasmodium falciparum of 5.01 µg/mL (≈ 12.5 µM). In data set [1], the Activity entry is listed as “Toxic”.
Consider `CCN(CC)CCCC(C)Nc1ccnc2cc(Cl)ccc12` (stereo not drawn) [CHLOROQUINE], for which the Activity entry in data set [1] is “Toxic”.
With `Nc1nc(-c2ccc(F)cc2)cc(-c2ccc(OCc3ccccc3)cc2O)n1`, in data set [3], the Activity result is “Toxic”. Besides, the IC50 in the data set with Plasmodium falciparum turned out to be 16.7 µg/mL (≈ 43 µM).
`COc1cccc(-c2cc(-c3ccc(OCc4ccccc4)cc3O)nc(N)n2)c1` had an IC50 with Plasmodium falciparum of 7.61 µg/mL (≈ 19.1 µM). In addition, the Activity entry in data set [1] is “Toxic”.
On the same counts, the results for `C=C[C@H]1C[N@@]2CC[C@H]1C[C@H]2[C@H](O)c1ccnc2ccc(OC)cc12` [QUININE] are 29 µg/mL (≈ 89.4 µM) and “Toxic”.

As usually defined, the IC50 is the concentration that inhibits the measured activity by half.
